From article PMC12326981, “Novel C5α-substituted carbapenems enhance Mycobacterium abscessus killing via selective target binding and reduced hydrolysis by BlaMab” (Antimicrobial Agents and Chemotherapy, 2025)
Values joined by “and” are separate entries in the source; they are usually repeats but may differ in a detail not shown here. Identical values can stand only once.

How the values were obtained:
PBP B = PBP B (Mycobacteroides abscessus, UniProt B1MP31); test: Mass spectrometric analysis of acyl-enzyme adducts; format: binding; conditions: PBP B (65,863); 1:10 molar ratio, 2 h; accuracy ±5 Da
Method: Truncated sequences of BlaMab (Δ1–30 blaMab), LDT1–5, DDC, PBP B, PonA2, and PBP-lipo (Δ1–41) were synthesized by Celtek Biosciences (Franklin, TN) and cloned into the pET28(a)+ vector. Purification of LDTs and PBPs was carried out as previously described ([15], [16], [20]). Briefly, clones were transformed into Escherichia coli BL21 (DE3), and protein expression was induced with 0.25 mM isopropyl β-d-1-thiogalactopyranoside. Cell pellets were resuspended in buffer containing 50 mM Tris (pH 8.0), 400 mM sodium chloride, and 1 mM Tris(2-carboxyethyl)phosphine hydrochloride and lysed by sonication. After centrifugation, the supernatant was purified using a His Prep FF column and eluted with 500 mM imidazole.
The purified proteins were incubated at room temperature with JDB/NA-1-157 and JDB/NA-1-208 at a molar ratio of 1:10 for 2 h. A quadrupole time-of-flight mass spectrometer (Waters Synapt-G2-Si) with electrospray ionization and a Waters Acquity H-Class UPLC system were used to analyze the samples. The liquid chromatography conditions were as follows: a BEH C18 column (1.7 µm, 2.1 × 50 mm) and a mobile phase consisting of 0.1% formic acid in water and 0.1% formic acid in acetonitrile, with a gradient elution from 10% to 90% acetonitrile over 11 min at a flow rate of 0.5 mL/min. […]

LDT5 = LDT5 (Mycobacteroides abscessus, UniProt B1MHQ4); test: Apparent inhibition constant (nitrocefin, Dixon plot); format: biochemical, Mycobacterium abscessus; conditions: read-out: Ki,app
Method: (§1) Steady-state kinetic studies with JDB/NA-1-157 and JDB/NA-1-208 were performed using purified LDTs and PBPs, including LDT1–5, PBP-B, PBP-lipo, and D,D-carboxypeptidase. The assays were conducted on a BioTek Synergy2 multimode reader equipped with Gen5 software. To determine the Michaelis constant (Km^NCF) for each LDT and PBP, a wide range of NCF concentrations was tested, while the enzyme concentrations were fixed. Absorbance changes at 482 nm were monitored over 10 min. Steady-state kinetic parameters (Vmax and Km) were derived by fitting the experimental data to the Henri–Michaelis–Menten equation using nonlinear least-squares regression in GraphPad Prism version 9. The reaction velocity (v) at a given substrate concentration ([S]) was calculated using equation 2: […]
(§2) The apparent inhibition constants (Ki,app) for JDB/NA-1-157 and JDB/NA-1-208 were determined under the following conditions: an NCF concentration of 5 × Km, fixed concentrations of LDT or PBP enzymes, and varying concentrations of JDB/NA-1-157 and JDB/NA-1-208. Absorbance changes at 482 nm were monitored over a 30 min period for each inhibitor concentration. The data were linearized using a Dixon plot, which involves plotting the reciprocal of the absorbance change (1/ΔA) against the concentrations of JDB/NA-1-157 or JDB/NA-1-208. Apparent Ki,app values were derived from the intersection points on the Dixon plot and were subsequently corrected for substrate concentration and enzyme affinity using equation 3:
(§3) (3) Ki,app=observed Ki,app/1+[NCF]/Km NCF.

18 clinical isolates = test: MIC distribution against 18 clinical isolates (and Mab ATCC 19977); format: cell-based, Mycobacterium abscessus; conditions: single agent, 18 clinical isolates (Fig. 3 also Mab ATCC 19977)
Description: We investigated the effect of C5α-substituted carbapenems (C5α-methyl, JDB/NA-1-157 or 10a and C5α-ethyl, JDB/NA-1-208, or 10b) against Mab strain ATCC 19977, which produces BlaMab, alongside 18 clinical isolates obtained from de-identified patients. These clinical isolates were sourced from National Jewish Health, University Hospitals Cleveland Medical Center, and Cleveland MetroHealth. The strains were utilized for MIC assays and static drug concentration time-kill (SCTK) experiments. Two C5α-substituted carbapenems were designed and synthesized in the Buynak lab at SMU ([31]). The active forms of cefuroxime salts, imipenem, amoxicillin, sulbactam, and avibactam were purchased from AchemBlock, while durlobactam was provided by Innoviva Specialty Therapeutics. All β-lactams and BLIs were prepared in sterile distilled water and subsequently filter-sterilized using a 0.22 µm polyethersulfone syringe filter.
MICs were determined in duplicate following Clinical Laboratory Standards Institute ([52]) guidelines using Middlebrook 7H9 broth supplemented with 10% (vol/vol) oleic acid-albumin-dextrose-catalase (OADC) and 0.05% (vol/vol) Tween 80, with an inoculum of 5 × 10⁵ CFU/mL. […]

PBP-lipo = biological target: T1, PBP-lipo (Mycobacteroides abscessus, UniProt B1MDC3); test: Apparent inhibition constant (nitrocefin, Dixon plot); format: biochemical; conditions: Ki,app
T1 construct: made in house; host or cells: Escherichia coli BL21 (DE3)
Method: as §1, §2, §3

BlaMab = BlaMab (Mycobacteroides abscessus, UniProt B1MCI3); test: Steady-state kinetics of hydrolysis by BlaMab; format: biochemical, Mycobacterium abscessus; conditions: best-fit value (95% confidence interval); MES buffer pH 6.4, room temperature
Sequence of BlaMab (B1MCI3 entry or part of it): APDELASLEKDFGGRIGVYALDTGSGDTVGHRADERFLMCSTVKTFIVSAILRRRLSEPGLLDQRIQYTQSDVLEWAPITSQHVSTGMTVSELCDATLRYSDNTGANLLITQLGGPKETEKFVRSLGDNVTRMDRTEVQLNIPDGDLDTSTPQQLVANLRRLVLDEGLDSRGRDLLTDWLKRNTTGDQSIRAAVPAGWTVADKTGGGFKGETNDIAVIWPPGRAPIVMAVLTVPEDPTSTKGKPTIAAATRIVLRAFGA

Sequence of PBP B (B1MP31 entry or part of it): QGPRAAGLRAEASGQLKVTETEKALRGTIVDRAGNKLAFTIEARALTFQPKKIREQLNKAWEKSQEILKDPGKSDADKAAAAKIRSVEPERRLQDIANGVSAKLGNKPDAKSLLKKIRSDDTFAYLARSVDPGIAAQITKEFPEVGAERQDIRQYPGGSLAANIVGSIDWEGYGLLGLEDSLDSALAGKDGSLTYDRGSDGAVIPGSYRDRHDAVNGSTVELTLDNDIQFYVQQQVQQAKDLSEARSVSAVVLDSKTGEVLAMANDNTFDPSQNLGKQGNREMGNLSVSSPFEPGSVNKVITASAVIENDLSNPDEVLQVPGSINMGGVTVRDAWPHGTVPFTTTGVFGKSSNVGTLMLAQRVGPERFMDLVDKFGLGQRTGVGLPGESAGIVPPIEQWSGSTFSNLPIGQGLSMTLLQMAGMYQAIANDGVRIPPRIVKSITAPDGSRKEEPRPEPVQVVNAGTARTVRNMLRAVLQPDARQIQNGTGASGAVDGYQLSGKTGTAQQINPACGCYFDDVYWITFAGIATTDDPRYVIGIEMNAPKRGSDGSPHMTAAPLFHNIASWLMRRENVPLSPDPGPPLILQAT
T1 sequence (B1MDC3 entry or part of it): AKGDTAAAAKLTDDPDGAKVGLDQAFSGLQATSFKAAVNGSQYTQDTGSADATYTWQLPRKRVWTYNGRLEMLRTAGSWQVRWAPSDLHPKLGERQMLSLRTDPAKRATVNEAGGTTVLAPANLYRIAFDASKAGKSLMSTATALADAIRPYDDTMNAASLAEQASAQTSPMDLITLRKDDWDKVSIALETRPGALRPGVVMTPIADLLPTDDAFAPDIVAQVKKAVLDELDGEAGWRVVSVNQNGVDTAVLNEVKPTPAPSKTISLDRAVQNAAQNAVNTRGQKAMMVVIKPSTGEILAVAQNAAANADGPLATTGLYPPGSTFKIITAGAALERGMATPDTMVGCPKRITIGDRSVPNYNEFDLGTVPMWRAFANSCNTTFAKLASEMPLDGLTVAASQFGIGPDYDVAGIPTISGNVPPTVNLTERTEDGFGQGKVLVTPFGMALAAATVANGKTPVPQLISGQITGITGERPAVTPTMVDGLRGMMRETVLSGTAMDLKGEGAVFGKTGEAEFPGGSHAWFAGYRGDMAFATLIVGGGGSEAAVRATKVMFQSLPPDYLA
Sequence of LDT5 (B1MHQ4 entry or part of it): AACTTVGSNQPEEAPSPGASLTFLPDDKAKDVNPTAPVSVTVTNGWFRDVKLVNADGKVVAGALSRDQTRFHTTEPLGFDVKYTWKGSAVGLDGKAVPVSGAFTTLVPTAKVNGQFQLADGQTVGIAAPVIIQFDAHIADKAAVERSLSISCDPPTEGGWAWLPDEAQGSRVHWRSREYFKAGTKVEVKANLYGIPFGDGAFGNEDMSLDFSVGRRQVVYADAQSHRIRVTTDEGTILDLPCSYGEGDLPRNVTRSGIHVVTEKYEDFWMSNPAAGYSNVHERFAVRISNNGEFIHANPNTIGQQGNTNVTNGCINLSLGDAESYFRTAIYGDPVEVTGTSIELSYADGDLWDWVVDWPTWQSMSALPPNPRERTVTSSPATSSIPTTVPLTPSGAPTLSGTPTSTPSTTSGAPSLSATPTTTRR

Row | SMILES | Mass of protein after incubation (mass shift) (PBP B) | Ki (LDT5) | MIC range (18 clinical isolates) | Ki (PBP-lipo) | kcat (BlaMab)
1 | CC[C@]12CC(S[C@@H]3CN[C@H](C(=O)N(C)C)C3)=C(C(=O)O)N1C(=O)[C@@H]2[C@@H](C)O [JDB/NA-1-208] | 66,262 (+397) Da | 28.9 µM |  |  | 
2 | C[C@@H](O)[C@H]1C(=O)N2C(C(=O)O)=C(S[C@@H]3CN[C@H](C(=O)N(C)C)C3)C[C@]12C [JDB/NA-1-157] |  |  | 0.125 to 8.0 µg/mL and 0.125 to 8 µg/mL | 0.258 µM | 0.03 s⁻¹
